In patent US8703805B2 (Exelixis Patent Company LLC, priority 2005, dated 2014):

These compounds were tested on LXRα and/or LXRβ (assay: LXR/LXRE co-transfection assay (luciferase reporter, CV-1 cells)). Conditions: IC50 or EC50 for LXR (LXRα and/or LXRβ, not distinguished), tested as described in Example 109, CV-1 cells.
Format: cell-based, human
Summary of the method: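 Transient co-transfection of CV-1 cells with full-length human LXRα or LXRβ plus RXRα expression plasmids and an LXREx1-Tk-luciferase reporter; compounds (10 μM screen, ≤1% DMSO) incubated 20 h at 37 °C. Luminescence read after lysis; EC50/IC50 from 8-point half-log curves, efficacy relative to a high control or DMSO.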

SMILES | EC50 [nM]
CS(=O)(=O)c1cccc(-c2ccc(-c3c(Br)c(C(F)(F)F)nn3-c3c(Cl)cccc3Cl)s2)c1 [Example 1313, 4-bromo-1-(2,6-dichlorophenyl)-5-{5-[3-(methylsulfonyl)phenyl]-2-thienyl}-3-(trifluoromethyl)-1H-pyrazole] | < 1000
CS(=O)(=O)c1cccc(-c2ccc(-c3cc(C(F)(F)F)nn3-c3ccccc3Oc3ccccc3)s2)c1 [Example 1215, 5-{5-[3-(methylsulfonyl)phenyl]-2-thienyl}-1-[2-(phenyloxy)phenyl]-3-(trifluoromethyl)-1H-pyrazole] | < 1000
CC(C)(O)c1cccc(-c2ccc(-c3cc(C(F)(F)F)nn3-c3ccccc3Cl)s2)c1 [Example 1240, 2-(3-{5-[1-(2-chlorophenyl)-3-(trifluoromethyl)-1H-pyrazol-5-yl]-2-thienyl}phenyl)propan-2-ol] | < 1000
COC(=O)CN(C)C(=O)c1cc(-c2ccc(-c3cccc(S(C)(=O)=O)c3)s2)n(-c2ccccc2Cl)n1 [Example 589, methyl N-{[1-(2-chlorophenyl)-5-{5-[3-(methylsulfonyl)phenyl]-2-thienyl}-1H-pyrazol-3-yl]carbonyl}-N-methylglycinate] | < 1000
O=C(NCCN1CCOCC1)c1ccc(-c2cc(C(F)(F)F)nn2-c2ccccc2Cl)cc1 [Example 970, 4-[1-(2-chlorophenyl)-3-(trifluoromethyl)-1H-pyrazol-5-yl]-N-(2-morpholin-4-ylethyl)benzamide] | 1000 to 10000
CN1CCN(C(=O)c2cc(-c3ccc(-c4cccc(S(C)(=O)=O)c4)s3)n(-c3ccccc3Cl)n2)CC1 [Example 508, 1-{[1-(2-chlorophenyl)-5-{5-[3-(methylsulfonyl)phenyl]-2-thienyl}-1H-pyrazole-3-yl]carbonyl}-4-methylpiperazine] | 1000 to 10000
CS(=O)(=O)c1cccc(-c2ccc(-c3cc(C(=O)N4CCCC4)nn3-c3ccccc3C(F)(F)F)s2)c1 [Example 1210, 5-{5-[3-(methylsulfonyl)phenyl]-2-thienyl}-3-(pyrrolidin-1-ylcarbonyl)-1-[2-(trifluoromethyl)phenyl]-1H-pyrazole] | < 1000
CS(=O)(=O)c1cccc(-c2ccc(-c3cc(C4(O)CCCC4)nn3-c3ccccc3Cl)s2)c1 [Example 1228, 1-[1-(2-chlorophenyl)-5-{5-[3-(methylsulfonyl)phenyl]-2-thienyl}-1H-pyrazol-3-yl]cyclopentanol] | < 1000
COC(=S)c1cc(-c2ccc(-c3cccc(S(C)(=O)=O)c3)s2)n(-c2ccccc2C(F)(F)F)n1 [Example 1179, O-methyl 5-{5-[3-(methylsulfonyl)phenyl]-2-thienyl}-1-[2-(trifluoromethyl)phenyl]-1H-pyrazol-3-carbothioate] | 1000 to 10000
CC(C)(O)c1ccc(-c2ccc(-c3cc(C(F)(F)F)nn3-c3cc(Cl)ccc3Cl)s2)cc1S(C)(=O)=O [Example 1304, 2-[4-{5-[1-(2,5-dichlorophenyl)-3-(trifluoromethyl)-1H-pyrazol-5-yl]-2-thienyl}-2-(methylsulfonyl)phenyl]propan-2-ol] | < 1000
CC(C)(C(=O)O)c1cccc(-c2ccc(-c3cc(C(F)(F)F)nn3Cc3ccc(F)cc3F)s2)c1 [Example 1205, 2-[3-(5-{1-[(2,4-difluorophenyl)methyl]-3-(trifluoromethyl)-1H-pyrazol-5-yl}-2-thienyl)phenyl]-2-methylpropanoic acid] | < 1000
CS(=O)(=O)c1cccc(-c2ccc(-c3cc(C(=O)NCC(F)(F)F)nn3-c3cccnc3C(F)(F)F)c(Cl)c2)c1 [Example 1401, 5-(3-chloro-3′-(methylsulfonyl)biphenyl-4-yl)-N-(2,2,2-trifluoroethyl)-1-(2-(trifluoromethyl)pyridin-3-yl)-1H-pyrazole-3-carboxamide] | < 1000
CC(C)NC(=O)Oc1cccc(-c2ccc(-c3cc(C(C)(C)O)nn3-c3ccccc3Cl)cc2)c1 [Example 1296, 4′-[1-(2-chlorophenyl)-3-(1-hydroxy-1-methylethyl)-1H-pyrazol-5-yl]biphenyl-3-yl (1-methylethyl)carbamate] | 1000 to 10000
CS(=O)(=O)c1cccc(-c2ccc(-c3cc(C(=O)NCC(F)(F)F)nn3-c3ccccc3Cl)s2)c1 [Example 1161, 1-(2-chlorophenyl)-5-{5-[3-(methylsulfonyl)phenyl]-2-thienyl}-N-(2,2,2-trifluoroethyl)-1H-pyrazole-3-carboxamide] | < 1000
O=C(O)CNC(=O)c1ccc(-c2cc(C(F)(F)F)nn2-c2ccccc2Cl)cc1 [Example 1362, N-({4-[1-(2-chlorophenyl)-3-(trifluoromethyl)-1H-pyrazol-5-yl]phenyl}carbonyl)glycine] | 1000 to 10000

Now from value to compound:

EC50 [nM] | SMILES
< 1000 | CC(O)c1cc(-c2ccc(-c3cccc(S(C)(=O)=O)c3)s2)n(-c2ccccc2Cl)n1 (stereo not drawn) [Example 1157, 1-[1-(2-chlorophenyl)-5-{5-[3-(methylsulfonyl)phenyl]-2-thienyl}-1H-pyrazol-3-yl]ethanol]
< 1000 | CS(=O)(=O)c1cccc(-c2ccc(-n3nc(C(F)(F)F)cc3-c3ccccc3C(F)(F)F)nc2)c1 [Example 1231, 5-[3-(methylsulfonyl)phenyl]-2-{3-(trifluoromethyl)-5-[2-(trifluoromethyl)phenyl]-1H-pyrazol-1-yl}pyridine]
< 1000 | CC(=O)c1cc(-c2cc(C(F)(F)F)nn2-c2ccccc2Cl)ccc1-c1cccc(S(C)(=O)=O)c1 [Example 1206, 1-{4-[1-(2-chlorophenyl)-3-(trifluoromethyl)-1H-pyrazol-5-yl]-3′-(methylsulfonyl)biphenyl-2-yl}ethanone]
1000 to 10000 | CC(C)(O)c1cc(-c2ccc(-c3cccc(S(C)(=O)=O)c3)s2)n(-c2cc(Cl)cc(Cl)c2)n1 [Example 1323, 2-[1-(3,5-dichlorophenyl)-5-{5-[3-(methylsulfonyl)phenyl]-2-thienyl}-1H-pyrazol-3-yl]propan-2-ol]
< 1000 | CC(C)(O)c1cc(-c2ccc(-c3cccc(S(C)(=O)=O)c3)s2)n(-c2cccc3c2OC(F)(F)O3)n1 [Example 1342, 2-[1-(2,2-difluoro-1,3-benzodioxol-4-yl)-5-{5-[3-(methylsulfonyl)phenyl]-2-thienyl}-1H-pyrazol-3-yl]propan-2-ol]
1000 to 10000 | CC(C)(O)c1cc(-c2ccc(-c3cccc(S(C)(=O)=O)c3)cc2)n(-c2cnccc2C(F)(F)F)n1 [Example 108, 2-(5-(3′-(methylsulfonyl)biphenyl-4-yl)-1-(4-(trifluoromethyl)pyridin-3-yl)-1H-pyrazol-3-yl)propan-2-ol]
< 1000 | Cc1ccc(F)cc1-n1nc(C(C)(C)O)cc1-c1ccc(-c2cccc(S(C)(=O)=O)c2)s1 [Example 1331, 2-[1-(5-fluoro-2-methylphenyl)-5-{5-[3-(methylsulfonyl)phenyl]-2-thienyl}-1H-pyrazol-3-yl]propan-2-ol]
1000 to 10000 | CC(C)(O)c1cc(-c2ccc(-c3cccc(S(C)(=O)=O)c3)s2)n(-c2cc(F)ccc2F)n1 [Example 1322, 2-[1-(2,5-difluorophenyl)-5-{5-[3-(methylsulfonyl)phenyl]-2-thienyl}-1H-pyrazol-3-yl]propan-2-ol]
1000 to 10000 | CC(C)(O)c1cc(-c2ccc(-c3cccc(S(C)(=O)=O)c3)s2)n(-c2ccc(Cl)c(Cl)c2)n1 [Example 1324, 2-[1-(3,4-dichlorophenyl)-5-{5-[3-(methylsulfonyl)phenyl]-2-thienyl}-1H-pyrazol-3-yl]propan-2-ol]
< 1000 | CC(C)(O)c1cc(-c2ccc(-c3cccc(S(C)(=O)=O)c3)s2)n(-c2c(Cl)cncc2Cl)n1 [Example 126, 2-(1-(3,5-dichloropyridin-4-yl)-5-(5-(3-(methylsulfonyl)phenyl)thiophen-2-yl)-1H-pyrazol-3-yl)propan-2-ol]
< 1000 | CC(C)(O)c1cccc(-c2ccc(-c3cc(C(F)(F)F)nn3-c3ccccc3Cl)cc2)c1 [Example 1221, 2-{4′-[1-(2-chlorophenyl)-3-(trifluoromethyl)-1H-pyrazol-5-yl]biphenyl-3-yl}propan-2-ol]
< 1000 | Cc1cc(-c2cccc(S(C)(=O)=O)c2)ccc1-n1nc(C(C)(C)O)cc1-c1ccccc1C(F)(F)F [Example 139, 2-(1-(3-methyl-3′-(methylsulfonyl)biphenyl-4-yl)-5-(2-(trifluoromethyl)phenyl)-1H-pyrazol-3-yl)propan-2-ol]
< 1000 | Cc1cc(-c2cccc(S(C)(=O)=O)c2)ccc1-n1nc(C(C)(C)O)cc1-c1ccccc1Cl [Example 113, 2-(5-(2-chlorophenyl)-1-(3-methyl-3′-(methylsulfonyl)biphenyl-4-)-1H-pyrazol-3-yl)propan-2-ol]
1000 to 10000 | CC(C)(O)c1cc(-c2ccc(-c3ccc(S(N)(=O)=O)cc3)cc2)n(-c2ccccc2Cl)n1 [Example 1306, 4′-[1-(2-chlorophenyl)-3-(1-hydroxy-1-methylethyl)-1H-pyrazol-5-yl]biphenyl-4-sulfonamide]
1000 to 10000 | CC(C)(NC=O)c1cc(-c2ccc(-c3cccc(S(C)(=O)=O)c3)s2)n(-c2ccccc2Cl)n1 [Example 1203, N-{1-[1-(2-chlorophenyl)-5-{5-[3-(methylsulfonyl)phenyl]-2-thienyl}-1H-pyrazol-3-yl]-1-methylethyl}formamide]
< 1000 | Cc1cccc(C)c1-n1nc(C(C)(C)O)cc1-c1ccc(-c2cccc(S(C)(=O)=O)c2)s1 [Example 1352, 2-[1-(2,6-dimethylphenyl)-5-{5-[3-(methylsulfonyl)phenyl]-2-thienyl}-1H-pyrazol-3-yl]propan-2-ol]
1000 to 10000 | CC(C)(O)c1cc(-c2ccc(-c3ccc4[nH]ccc4c3)cc2)n(-c2ccccc2Cl)n1 [Example 1283, 2-{1-(2-chlorophenyl)-5-[4-(1H-indol-5-yl)phenyl]-1H-pyrazol-3-yl}propan-2-ol]
1000 to 10000 | CC(C)(O)c1cc(-c2ccc(-c3cccc(S(C)(=O)=O)c3)s2)n(-c2ccc(F)c(F)c2)n1 [Example 1267, 2-[1-(3,4-difluorophenyl)-5-{5-[3-(methylsulfonyl)phenyl]-2-thienyl}-1H-pyrazol-3-yl]propan-2-ol]
